Measurements reported in patent publication EP4772500A1, “NOVEL ISOXAZOLE COMPOUND AS TM4SF5-SPECIFIC INHIBITOR AND USE THEREOF” (Seoul National University R&DB Foundation, priority 2023, dated 2025).

Assays:
[1] = tested on: TM4SF5-expressing cells (SNU449T7); assay: Western blotting for signaling factors whose phosphorylation increases in a TM4SF5-expression dependent manner; type: cell-based, human; conditions: for phosphorylation of FAK, c-Src, STAT3, p27, S6K1, AKT, and STAT5: 24 hours (FIG. 9a-b); for phosphorylation of FAK, c-Src, STAT3, p27, S6K1, and AKT / phosphorylation of FAK, STAT3, c-Src, S6K1, Akt, and p27: given concentrations
Experimental: Cell extracts were obtained from cells grown to a density of 70-80% without any treatment, or from cells treated with vehicle DMSO or drugs at the given concentrations for 24 hours. For the extract of hepatocytes or liver cancer cells, a lysis buffer (150 mM NaCl, 1% NP-40, 50 mM Tris-HCl, 0.25% sodium deoxycholate, pH 7.4) including a protease inhibitor cocktail (GenDEPOT) was used. In addition, after washing animal liver tissue twice with PBS, SDS, Na3VO4, and protease inhibitor cocktails (GenDEPOT) were added to a lysis buffer [50 mM Tris-HCl, pH 7.4, 1% NP40, 0.25% sodium deoxycholate, 150 mM NaCl, 1 mM EDTA (based on 500 ml)], followed by treatment at 4°C for 15 minutes. After centrifugation at 13,000 rpm at 4°C for 30 minutes, only the supernatant was transferred to a new microcentrifuge tube. After quantification using BCA reagent (Thermo Scientific), a 4 × sample buffer [100% glycerol 4 ml, Tris-HCl, pH 6.8, 2.4 ml, SDS 0.8 g, Bromophenol blue 4 mg, betamercaptoethanol 0.4 ml, H2O 3.1 ml (based on 10 ml)] was added, followed by boiling at 100°C for 5 minutes. After performing SDS-PAGE electrophoresis with the above samples and transferring them to Nitrocellulose Membranes Protran™ nitrocellulose membranes (Whatman), pre-treatment was performed with 5% skim milk for 1 hour. After pre-treatment, primary antibodies of p-FAK(Y861) (SC-16663), p-FAK(Y577) (SC-16665), c-Src (SC-8056), STAT3 (SC-8019), p-AKT 1/2/3(S473) (SC-7985), STATS (SC-835), Laminin γ2 (SC-393225), COL1A1 (SC-28657), CCL5(RANTES) (SC-514019) CCL20(MIP-3α) (SC-517441), SIRT1 (SC-74465), ChREBP (SC-515922), SREBP1 (SC-366513), DGAT1 (SC-271934), DGAT2 (SC-293211), MICA/B (SC-137242), SLAMF7 (SC-390840), α-tublin (SC-5286), β-actin (SC-47778), FUCA (SC-365496) (the above from Santa Cruz Biotech, USA), p-FAK(Y397) (cat # 611723), FAK (cat # 610088), p27 (cat # 610242) (the above from BD Transduction, USA), p-FAK(Y925) (#3284) p-c-Src(Y416) (#2101), p-STAT3(Y705) (#9145), p70S6K1 (#9202), p-p70S6K1(T389) (#9205), p-STAT5(Y694) (#9314), ACC (#3676), FASN (#3189), CPT1A (#12252), p-ACC(S79) (#11818), HA (#3724), PD-L1 (#13684), PD-1 (#86163), p-ERK1/2(T202/Y204) (#9101s), ERK1/2 (#9102s) (the above from Cell Signaling Tech., USA), pS10p27(S10) (ab62364), human SLAMF6 (ab224201), TIGIT (ab233404), CD34 (ab81289) (the above from Abcam, UK), mouse SLAMF6 (PA5-87823), NKG2D (PA5-102038) (the above from Thermofisher, USA), α-SMA (Sigma Aldrich, A5228), CCL2 (Invitrogen, MA5-17040), and CD155(PVR) (Biolegend, 337601), HA (Biolegend, USA), Strep-HRP(horse-radish peroxidase), StrepMAB-HRP (IBA, USA), AFP (FineTest, FNab00203) were reacted at 4°C for 15 hours. The next day, secondary antibodies were reacted, and development was performed on X-ray film using ECL (Pierce, USA). Anti-TM4SF5C-ter (epitope region of RKKQDTPH^197) and anti-TM4SF5EC2 (CLMNGEWGYHFEDTAGA^130) were custom-made at a professional antibody production company (Pro-Sci, Poway, CA, USA).
Cell extracts were obtained before and after treating TM4SF5-non-expressing cells (SNU449Cp) and TM4SF5-expressing cells (SNU449T7) with ST-1-024 or ST-1-025 drugs at the given concentrations for 24 hours, and Western blotting was performed for signaling factors whose phosphorylation and activity increase in a TM4SF5-expression dependent manner.
(a) Cell extracts were obtained after treating TM4SF5-non-expressing cells (SNU449Cp) and TM4SF5-expressing cells (SNU449T7) with vehicle (DMSO), TSAHC, or isoxazole compounds ST-2-001, ST-2-002, ST-2-003, ST-2-004, ST-2-005, ST-2-006, ST-2-007, ST-2-008, ST-2-009, ST-2-010, or ST-2-011 at a dose of 5 µM (for 24 hours). Using these, Western blotting was performed for signaling factors whose phosphorylation and activity increase in a TM4SF5-expression dependent manner. […]

[2] = tested on: TM4SF5-expressing cells (SNU449T7); assay: 3D sphere growth/proliferation; type: cell-based, human; conditions: for degree of cell proliferation (spheres): 2.5 µM on the 0 and 3rd days, observed 6th day (FIG. 5b); for cell proliferation inhibitory effect: 0.5 or 2.5 µM (FIG. 10a, b), comparison among drugs; for survival/proliferation of the spheres: given concentrations on the 0, 3, 6, and 9th days, observed 10th day (FIG. 12b-c)
Experimental: TM4SF5-non-expressing cells (SNU449Cp) and TM4SF5-expressing cells (SNU449T7) of the same number (200 cells/well or 1000 cells/well) were added per well into Costar Ultra-Low Attachment Multiple Well Plates (CORNING), and were then treated with vehicle (DMSO) or drugs at various concentrations and cultured in a cell incubator under conditions of 37°C and 5% CO2. After repeatedly treating with the same concentrations of drugs every few days at regular intervals as indicated from the date of cell culture, the proliferation of the cells (spheres) was observed and photographed using an optical microscope on the last day of observation.
The drugs treated were the positive control drug TSAHC or the ST-1-025 isoxazole compound at the given concentrations. From the time of starting culture (0 day), (FIG. 3a) in the case of 2D culture, the number of cells was measured after treating with the drug every 24 hours, or (FIG. 3b) in a 3D environment, the proliferation of cells (spheres) was observed and photographed with an optical microscope on the 5th and 7th days after a single drug treatment at the start of culture. […]

[3] = SNU449T7, given concentrations, 24 hours (FIG. 2)
[4] = single treatment at 5 µM at start of culture, observed 5th and 7th days (FIG. 3b)
[5] = 0.5 or 2.5 µM, observed 6th or 10th day (FIG. 10a, b)
[6] = 0.1 or 1.0 µM, observed 10th day (FIG. 10c)

COc1ccc(-c2cc(-c3ccc(N)cc3)no2)cc1 [ST-1-025, 4-(5-(4-methoxyphenyl)isoxazole-3-yl)aniline]
phosphorylation of FAK, c-Src, STAT3, and p27 [1, 3]: decreased
degree of sphere proliferation ([2]; repeated treatment at given concentrations on the 0, 5, and 6th days, observed 7th day (FIG. 3c)): inhibited by ST-1-025 in a concentration-dependent manner, albeit slightly
degree of sphere proliferation [2, 4]: inhibited, albeit slightly

COc1ccc(-c2cc(-c3ccc(NC(C)=O)cc3)no2)cc1 [ST-2-001, N-(4-(5-(4-methoxyphenyl)isoxazole-3-yl)phenyl)acetamide]
phosphorylation of FAK, c-Src, STAT3, and p27 ([1]; 5 µM, 24 hours (FIG. 5a)): decreased
phosphorylation of FAK, c-Src, STAT3, p27, S6K1, AKT, and STAT5 ([1]; 5 µM): decreased
phosphorylation of FAK, c-Src, STAT3, p27, S6K1, and AKT ([1]; 24 hours (FIG. 5c)): decreased in a drug concentration-dependent manner
phosphorylation of FAK, c-Src, STAT3, p27, S6K1, and AKT ([1]; 24 hours (FIG. 9c)): decreased in a concentration-dependent manner
phosphorylation of FAK, STAT3, c-Src, S6K1, Akt, and p27 ([1]; 24 hours (FIG. 12a)): inhibited in many cases including STAT3, S6K1, and FAK
phosphorylation of FAK, STAT3, c-Src, S6K1, Akt, and p27 ([1]; 24 hours (FIG. 12d)): inhibited
degree of cell proliferation (spheres) [2]: inhibited
cell proliferation inhibitory effect [2]: strong
degree of three-dimensional cell proliferation [2, 5]: inhibited
survival/proliferation of the spheres [2]: inhibited

CC(=O)Nc1ccc(-c2cc(-c3ccc(F)cc3)on2)cc1 [ST-3-006, N-(4-(5-(4-fluorophenyl)isoxazole-3-yl)phenyl)acetamide]
phosphorylation of FAK, c-Src, STAT3, p27, S6K1, AKT, and STAT5 ([1]; 5 µM): decreased
phosphorylation of FAK, c-Src, STAT3, p27, S6K1, and AKT ([1]; 24 hours (FIG. 9c)): decreased in a concentration-dependent manner
degree of three-dimensional cell proliferation [2, 6]: decreased
cell proliferation inhibitory effect [2]: strong
degree of three-dimensional cell proliferation [2, 5]: inhibited

COc1ccc(-c2cc(-c3cccc(NC(C)=O)c3)no2)cc1 [ST-3-011, N-(3-(5-(4-methoxyphenyl)isoxazole-3-yl)phenyl)acetamide]
phosphorylation of FAK, c-Src, STAT3, p27, S6K1, AKT, and STAT5 ([1]; 5 µM): decreased
phosphorylation of FAK, c-Src, STAT3, p27, S6K1, and AKT ([1]; 24 hours (FIG. 9c)): decreased in a concentration-dependent manner
degree of three-dimensional cell proliferation [2, 6]: decreased
degree of three-dimensional cell proliferation [2, 5]: inhibited

CC(=O)Nc1ccc(-c2cc(-c3ccc(O)cc3)no2)cc1 [ST-5-001, N-(4-(3-(4-hydroxyphenyl)isoxazole-5-yl)phenyl)acetamide]
phosphorylation of FAK, STAT3, c-Src, S6K1, Akt, and p27 ([1]; 24 hours (FIG. 12d)): inhibited
survival/proliferation of the spheres [2]: inhibited

Cc1ccc(C(=O)Nc2ccc(-c3cc(-c4ccc(O)cc4)no3)cc2)cc1 [ST-5-002, N-(4-(3-(4-hydroxyphenyl)isoxazole-5-yl)phenyl)-4-methylbenzamide]
phosphorylation inhibitory efficacy ([1]; drug with improved purity (FIG. 12d)): maintained and further improved
phosphorylation of FAK, STAT3, c-Src, S6K1, Akt, and p27 ([1]; 24 hours (FIG. 12d)): inhibited
survival/proliferation of the spheres [2]: inhibited

Cc1ccc(S(=O)(=O)Nc2ccc(C(=O)/C=C/c3ccc(O)cc3)cc2)cc1 [TSAHC, 4'-(p-toluenesulfonylamino)-4-hydroxychalcone, reference compound]
phosphorylation of FAK, c-Src, STAT3, and p27 ([1]; 5 µM, 24 hours (FIG. 5a)): decreased
phosphorylation of FAK, c-Src, STAT3, and p27 [1, 3]: decreased
phosphorylation of FAK, c-Src, STAT3, p27, S6K1, and AKT ([1]; 24 hours (FIG. 5c)): decreased in a drug concentration-dependent manner
degree of cell proliferation (spheres) [2]: inhibited
degree of sphere proliferation [2, 4]: inhibited, albeit slightly
